# Like-named read-outs stand apart in the source and are kept apart here.
# Target: T1, human PAH with the R408W mutation (Homo sapiens, UniProt P00439, R408W)
# T1 construct: expressed in transfected cells
# T1 sequence (P00439 1-452 R408W): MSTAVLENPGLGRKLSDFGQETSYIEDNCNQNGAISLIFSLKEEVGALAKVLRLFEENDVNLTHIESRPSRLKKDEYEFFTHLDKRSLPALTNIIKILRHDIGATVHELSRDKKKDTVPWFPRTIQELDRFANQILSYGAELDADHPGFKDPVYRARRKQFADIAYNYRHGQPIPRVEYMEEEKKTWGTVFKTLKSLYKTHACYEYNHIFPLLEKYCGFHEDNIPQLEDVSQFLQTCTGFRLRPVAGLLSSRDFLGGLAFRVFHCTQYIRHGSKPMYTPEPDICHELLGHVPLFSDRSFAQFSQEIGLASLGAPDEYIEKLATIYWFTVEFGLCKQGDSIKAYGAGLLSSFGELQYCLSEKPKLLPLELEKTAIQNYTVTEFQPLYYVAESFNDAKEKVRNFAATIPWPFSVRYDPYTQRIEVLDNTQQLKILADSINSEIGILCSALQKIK
# Assay: Cell Based Phenylalanine Flux Assay;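 also: after compound treatment, cells received sepiapterin plus isotope-labelled Phenylalanine for 4 hours, then labelled Tyrosine in the medium was quantified, 10-point 2-fold dilution series run in duplicate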
# Conditions: 24 hrs compound incubation, 13C-Tyrosine by LC-MS, average where tested multiple times
# [1] = A375 cells expressing human PAH R408W, read-out: AC50
Compound,AC50 [1] [µM],further results
"FC(F)(F)c1cccn2nc([C@H]3c4nc[nH]c4CCN3c3nnc(-c4cnccn4)o3)cc12 [Example 2511, (R)-2-(pyrazin-2-yl)-5-(4-(4-(trifluoromethyl)pyrazolo[1,5-a]pyridin-2-yl)-1,4,6,7-tetrahydro-5H-imidazo[4,5-c]pyridin-5-yl)-1,3,4-oxadiazole]",> 5,
"O=C(c1cnc(-c2cnccn2)o1)N1CCc2[nH]cnc2[C@H]1c1cc2c(F)cccn2n1 [Example 2516, (S)-(4-(4-fluoropyrazolo[1,5-a]pyridin-2-yl)-1,4,6,7-tetrahydro-5H-imidazo[4,5-c]pyridin-5-yl)(2-(pyrazin-2-yl)oxazol-5-yl)methanone]",1 to 5,
"O=C(c1cnc(-c2cnccn2)o1)N1CCc2[nH]cnc2[C@@H]1c1cc2c(F)cccn2n1 [Example 2517, (R)-(4-(4-fluoropyrazolo[1,5-a]pyridin-2-yl)-1,4,6,7-tetrahydro-5H-imidazo[4,5-c]pyridin-5-yl)(2-(pyrazin-2-yl)oxazol-5-yl)methanone]",> 5,
"CC(C)c1cccn2nc([C@@H]3c4nc[nH]c4CCN3c3nnc(C4CC(F)(F)C4)o3)cc12 [Example 2519, (S)-2-(3,3-difluorocyclobutyl)-5-(4-(4-isopropylpyrazolo[1,5-a]pyridin-2-yl)-1,4,6,7-tetrahydro-5H-imidazo[4,5-c]pyridin-5-yl)-1,3,4-oxadiazole]",,"AC50 (AC50, A375 cells expressing human PAH R408W): 1 to 5 µM"
"FC(F)c1cccc2cc([C@@H]3c4nc[nH]c4CCN3c3nnc(-c4cnccn4)o3)nn12 [Example 2521, (S)-2-(4-(7-(difluoromethyl)pyrazolo[1,5-a]pyridin-2-yl)-1,4,6,7-tetrahydro-5H-imidazo[4,5-c]pyridin-5-yl)-5-(pyrazin-2-yl)-1,3,4-oxadiazole]",1 to 5,
"CC(F)(F)c1nnc(N2CCc3[nH]cnc3[C@H]2c2cc3cccc(C(F)F)n3n2)o1 [Example 2523, (S)-2-(1,1-difluoroethyl)-5-(4-(7-(difluoromethyl)pyrazolo[1,5-a]pyridin-2-yl)-1,4,6,7-tetrahydro-5H-imidazo[4,5-c]pyridin-5-yl)-1,3,4-oxadiazole]",1 to 5,
"O=C(c1nnc(-c2c(F)cccc2F)o1)N1CCc2[nH]cnc2C1c1cc2ccccn2n1 (centres unmarked) [Example 2524, (5-(2,6-difluorophenyl)-1,3,4-oxadiazol-2-yl)(4-(pyrazolo[1,5-a]pyridin-2-yl)-6,7-dihydro-1H-imidazo[4,5-c]pyridin-5(4H)-yl)methanone]",0.5 to 1,
"(S)-(5-(2-fluoropropan-2-yl)-1,3.4-oxadiazol-2-yl)(4-(7-fluoropyrazolo[1,5-a]pyridin-2-yl)-6,7-dihydro-1H-imidazo[4,5-c(pyridin-5(4H)-yl)methanone [Example 1256]",,"AC50 (A375 cells expressing human R408W PAH, read-out: AC50): < 0.5 µM"

# Source: patent publication US20230365592A1 (Agios Pharmaceuticals, Inc., priority 2022, published 2023)
